One test concerns the target T1, DsRed-stDCyD (Salmonella typhimurium, UniProt Q8ZNT7).
T1 construct: expressed in transfected cells; host or cells: HEK293 / HEK293T
Put plainly: SypHer3s live-cell imaging of intracellular pH in HEK293T cells expressing pH-Control, substrates administered. In kind it is cell-based, human. The following applies: for selectivity test: enzyme response in comparison to βCDA: FIG. 1f; for ability to acidify cell compartments: cells expressing stDCyD. The protocol: (§1) For live-cell imaging experiments, a HEPES-buffered physiological solution was used consisting of 2 mM CaCl2, 5 mM KCl, 138 mM NaCl, 1 mM MgCl2, 10 mM HEPES, 10 mM D-Glucose, and pH was adjusted to 7.43 using 1 M NaOH. For experiments with nigericin (N7143, Merck) and monensin (M5273, Merck), imaging buffered contained 5 mM KCl, 138 mM NaCl, 1 mM MgCl2, 20 mM HEPES, 10 mM D-Glucose, 0.2 mM EGTA and pH was adjusted to the desired value using either 1 M NaOH or 1M HCl. To prepare β-Chloro-D-alanine solutions, the powder was dissolved in imaging buffer and the pH was readjusted to 7.43.
(§2) Characterization studies have been performed in cultured human embryonic kidney cells (HEK293), grown in a high-glucose (4.5 g/L) complete medium including 10% FBS and 100 μg/ml streptomycin and 100 U/ml penicillin in a humidified incubator (37° C., 5% CO2). 24 hours before transfection, cells were seeded (˜3×10^5 cells per well) on a 30 mm glass coverslips No.1 (Glaswarenfabrik Karl Knecht Sondheim, Germany). At ˜70-80% confluency, cells were co-transfected with CMV-driven mammalian expression vectors (pLenti-MP2) encoding for differential targeted SypHer3s or DsRed-stDCyD enzymes using PolyJet transfection reagent according to the manufacturer's instructions. All imaging experiments were performed 24 h after transfection. HEK293T cells were cultured up to passage 30.
Widefield imaging experiments were performed on a Zeiss Axio Observer.Z1/7 (Carl Zeiss AG, Oberkochen, Germany) equipped with an LED light source Colibri 7 (423/44 nm, 469/38 nm, 555/30), PlanApochromat 20x/0.8 dry objective, Plan-Apochromat 40x/1.4 oil immersion objective, a monochrome CCD camera Axiocam 503. A custom-made pump-driven perfusion system was used to administrate and withdraw substrates to cells placed in a metal perfusion chamber (NGFI, Graz, Austria). SypHer signals were imaged by alternately exciting cells using a motorized dual-filter wheel equipped with beam splitters (FT455 (for SypHer low, F420) and FT495 (for SypHer high, F490)). Emissions were alternately collected using a bandpass filter (BP 525/50). DsRed-stDyCD emission was collected using the filter combinations FT570 (BS) and emission filter 605/70. During live-imaging data acquisition was performed using Zen Blue 3.1 Pro software (Carl Zeiss AG, Oberkochen, Germany). Confocal imaging was performed using a laser scanning confocal microscope LSM 800 (Zeiss, Germany) equipped with a Plan-Apochromat 40x/1.3 DIC (UV) VIS-IS oil immersion objective. SypHer biosensors were excited with a 488 nm and 405 nm laser, and emissions were collected using a 509 nm filter system. SypHer signals were acquired with an A GaAsP-PMT detector and 400-565 nm filter using a Multialkali-PMT detector. DsRed-stDCyD constructs were excited using a 561 nm laser, and the emission wavelength was captured between 616 and 700 nm. The digital detector gain for all channels was set at 1; detector gain was applied between 500 and 1000 V. Laser intensities were set between 0.90% and 0.95%, and the pinhole was set between 29 and 32 μm according to the expression level of the fluorescent proteins. Bright-field mode was imaged using a photodiode detector. Zen Blue 3.1 software (Zeiss, Germany) was used to determine regions of interest.

The test system of test [1] is HEK293T cells. As to the kind of experiment: Overcorrection of intracellular pH after acute acidification, with and without monensin and nigericin. The class given is cell-based, human. The following applies: 10 μM nigericin and 10 μM monensin together. The procedure: FIG. 7. Overcorrection of intracellular pH levels following acute acidification. (left) Real-time traces of HEK293T cells expressing SypHer and pH-Control in response to 1 mM βCDA in the presence (pink curve and (right) bars, n= 3/15) and absence (green curve and (right) bars n= 3/13) 10 μM nigericin and 10 μM monensin that permeabilize the plasma membrane. Student's t-test has been applied.
as §1
Widefield imaging experiments were performed on a Zeiss Axio Observer.Z1/7 (Carl Zeiss AG, Oberkochen, Germany) equipped with an LED light source Colibri 7 (423/44 nm, 469/38 nm, 555/30), PlanApochromat 20x/0.8 dry objective, Plan-Apochromat 40x/1.4 oil immersion objective, a monochrome CCD camera Axiocam 503. […]

The subject of test [2] is HEK293T cells. As to the kind of experiment: SypHer3s live-cell imaging of intracellular pH in cells without the enzyme. In kind it is cell-based, human. The protocol:
as §1
as §2, with “30. […]” for “30.”

The test system of test [3] is mouse primary dorsal root ganglion (DRG) neurons. As to the kind of experiment: SypHer3s imaging in primary DRG neurons expressing pH-Control. The class given is cell-based. To be noted: different concentrations (10 or 1 mM, FIG. 1h). The protocol: (§3) Primary Neuron Culture: WT C57BL/6 mice were euthanized via cervical dislocation. Bilateral DRGs from all segments were dissected and then put in an ice-cold RPMI 1640 medium (R0883, Gibco). For enzymatic dissociation, ganglia were incubated with 100 U/mL collagenases (C9407, Sigma) in a neural medium containing 2% B27 (17504-044, Gibco), 2 mM Glutamax-I (35050-61, Gibco), 100 U penicillin, and […] (15140-122, Gibco) in Neural Basal Medium (NBA, 10888-022, Gibco) at 37C, 5% CO2. Following a 40 min incubation time, the medium containing collagenase was removed, and the ganglia were washed using Hank's buffered salt solution (H9269, Sigma). The ganglia were further enzymatically dissociated using 1 mg/mL trypsin (25300-054, Gibco) in the neural medium for 15 min at 37° C., 5% CO2. At the end of incubation, […] DNAse (D4513, Sigma) was added to the trypsin solution cell suspension to inhibit free DNA fragments, and the tissues were triturated by pipetting to obtain single cells. 30 min after incubation at 37° C., 5% CO2, the cell suspension was spun at 120 g for 3 min and resuspended neural medium supplemented with 10% fetal calf serum and […] trypsin inhibitor (T6522, Sigma) to inhibit enzymatic activity. […]

For test [4] the test system is unchanged. As to the kind of experiment: Membrane potential imaging with voltage sensor ASAP2s in DRG neurons co-expressing pH-Control. The class given is cell-based. To be noted: 10 mM βCDA versus high extracellular potassium (50 mM). The procedure:
as §3

T1 sequence (Q8ZNT7 whole entry, added parts left off): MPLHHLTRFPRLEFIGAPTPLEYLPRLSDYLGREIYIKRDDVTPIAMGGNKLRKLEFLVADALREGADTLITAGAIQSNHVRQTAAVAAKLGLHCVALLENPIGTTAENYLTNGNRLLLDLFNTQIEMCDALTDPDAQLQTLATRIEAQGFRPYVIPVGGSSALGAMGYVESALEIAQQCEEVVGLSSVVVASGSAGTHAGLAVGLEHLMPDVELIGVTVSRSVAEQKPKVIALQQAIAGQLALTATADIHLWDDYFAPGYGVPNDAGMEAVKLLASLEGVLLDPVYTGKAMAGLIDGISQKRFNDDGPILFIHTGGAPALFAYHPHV

For the compound `N[C@H](CS)C(=O)O` [D-Cysteine], the “decrease in pHi” value at DsRed-stDCyD (10 mM) is on record as “marginal decrease in pHi”.
`C[C@@H](N)C(=O)O` [D-alanine]: at DsRed-stDCyD, the “selectivity test: enzyme response in comparison to βCDA” value is reported as “remained agnostic” and the “ability to acidify cell compartments” value is recorded as “not”.
As to `CC[C@@]1([C@@H]2O[C@@H]([C@H]3O[C@@](O)(CO)[C@H](C)C[C@@H]3C)C[C@@H]2C)CC[C@H]([C@]2(C)CC[C@]3(C[C@H](O)[C@@H](C)[C@@H]([C@@H](C)[C@@H](OC)[C@H](C)C(=O)O)O3)O2)O1` [monensin], the “intracellular pH overcorrection after withdrawal of 1 mM βCDA” value with HEK293T cells [1] is recorded as “diminished”.
As to `CO[C@@H]1C[C@@H](C[C@H]2CC[C@H](C)[C@H]([C@@H](C)C(=O)O)O2)O[C@]2(O[C@](C)([C@H]3CC[C@@](C)([C@@H]4O[C@@H]([C@H]5O[C@@](O)(CO)[C@H](C)C[C@@H]5C)C[C@@H]4C)O3)C[C@H]2C)[C@@H]1C` [nigericin], the “intracellular pH overcorrection after withdrawal of 1 mM βCDA” value with HEK293T cells [1] is recorded as “diminished”.
For `N[C@H](CCl)C(=O)O` [βCDA, β-chloro-D-alanine], the “biosensor signal after withdrawal of substrate” value at DsRed-stDCyD (after recovery, indicates cellular alkalization (FIGS. 1c, 1g, 5a)) was “overshot the baseline”. For the same compound, the “SypHer response to different levels of substrate” value at DsRed-stDCyD (cells expressing pH-Control, constitutive administration of different levels (FIG. 1e)) was “concentration-dependent and fully reversible SypHer response”. The “intracellular acidification documented by SypHer3s” value at DsRed-stDCyD (cells expressing pH-Control, high concentrations of βCDA (13.4 mM, FIG. 1c)) is reported as “robust intracellular acidification”. Also, the “ability to acidify cell compartments” value at DsRed-stDCyD is “can acidify cell compartments”. Besides, the “SypHer response of cells only expressing SypHer” value with HEK293T cells [2] (different levels of substrate (FIG. 1e, right panel)) was “remained unresponsive”. In addition, the “SypHer3s response of wild-type cells without the enzyme” value in the test on HEK293T cells [2] (same high-concentration treatment (13.4 mM, FIG. 1c)) is listed as “marginal response”. For the same compound, in test [3], the “SypHer3s signals in DRG neurons” value was “robust SypHer3s signals”. In test [4], the “depolarization of membrane potential (ASAP2s)” value was “depolarized primary neurons even stronger than high extracellular potassium”.
On to `N[C@@H](CCl)C(=O)O` [βCLA, β-chloro-L-alanine], for which, at DsRed-stDCyD, the “selectivity test: enzyme response in comparison to βCDA” value is on record as “marginal responses”.

For the origin of these results see patent US20260023087A1, “A Novel Chemogenetic Tool Permitting Modulation of Intracellular pH” (ISTANBUL MEDIPOL UNIVERSITESI, priority 2023, published 2026).
